Consider 1 sequence from US20110306554A1, “PEPTIDE CAPABLE OF BINDING TO IMMUNOGLOBULIN” (priority 2009, published 2011).

“Also recorded” adds a separate entry of the source.

The test system of experiment [1] is Cy3-labeled goat anti-mouse immunoglobulin (IgG). As to the kind of experiment: Peptide array of C1q subunit 15-mers probed with Cy3-labeled immunoglobulin. The class given is binding. The note with it: peptide spots on glass array, 4° C., 12 hours, background fluorescence intensity is 2.6. The source says:
The amino acid sequences of the A, B, and C subunit chains of human C1q, are shown in SEQ ID NOs: 17 to 19, and the nucleotide sequences in SEQ ID NOs: 20 to 22. Based on each of the amino acid sequences, sequences having 15 amino acids (residues) from each subunit and shifted at intervals of three amino acids, were synthesized on a glass array as synthetic peptides (Peptide Nos. 1 to […], and 193 to 270 for the A, B, and C chains, respectively). The synthesis of each peptide was carried out at a specific location on the array, so as to prepare a peptide array which included the synthetic peptides covering the entire amino acid sequences of the subunits of C1q. The preparation of the array was outsourced to JPT Peptide Technologies GmbH.
To the peptide array was applied 330 μl of an Cy3-labeled goat anti-mouse immunoglobulin (IgG) (1 mg/ml; Zymed Laboratories) diluted 1000-fold with PBS (10 mM phosphate buffer, pH 7.0, 0.1 M NaCl), and the array was sealed and then incubated at 4° C. for 12 hours. After that, the array was washed once with methanol and then 5 times with Milli-Q water for 5 minutes each. The array slide was centrifuged and dried, and scanned with a fluorescence scanner (Agilent DNA microarray scanner; Agilent Technologies), so that fluorescence intensity was quantified at the respective peptide spots on the array using a software (Feature Extraction software; Agilent Technologies). Several spots displaying strong fluorescence intensities were detected. […] Note that in the description, the amino acids are denoted by the one-letter code known in the art.

In experiment [2] the test system is Monoclonal antibody cocktail-induced arthritis mice. As to the kind of experiment: Arthritis suppressing effects on arthritis-induced mice, Part 1. The class given is in vivo. On the procedure: Monoclonal antibody cocktail-induced arthritis mice (BALE/c Cr Slc (SPF)) were used to examine arthritis suppressing effects of a peptide which is indicated as R5 in Example 2. Arthritis was caused by intravenous administration of 2 mg/mouse of an arthritis-inducing monoclonal antibody cocktail and three days later, intraperitoneal administration of 50 μg/mouse of Lipopolysaccharide (LPS). Peptide R5 was intraperitoneally administered at a dose of 10 mg/kg once or twice a day from the day following the LPS administration (day 4) up to day 14. Methotrexate, a positive control drug, was orally administered at a dose of 0.1 mg/kg once a day from day 4. Clinical scores of the extremities were measured on even days from day 0 up to day 14. Under anesthesia, blood was removed with heparin-containing physiological saline, and an ice-cooled, 4% solution of paraformaldehyde was continuously injected to perfusion-fix the whole body. After perfusion-fixation, the knee joints (obtained by cutting at the center of the femur and of the tibia and removing the skin and muscles) and hock joints (from the center of the tibia to the toe tips) of both hind limbs were excised and further fixed by immersion in a 4% solution of paraformaldehyde overnight (4° C.). After that, both knee joints and both hock joints were transferred into 50 mM PBS (4° C.), and then subjected to soft x-ray radiography of the hock joints in two directions (from the internal side and the upper side).
The required amount was calculated for the peptide, based on the animal weight. A peptide solution was prepared to make a concentration of 1 mg/ml in a 0.5% methyl cellulose solution, and the prepared peptide solution was cold stored.
A solution of methotrexate was prepared by weighing 1 mg of methotrexate into an agate mortar, grinding it with a pestle, and then gradually adding a 0.5% methyl cellulose solution to form a suspension and make a concentration of 0.01 mg/ml. […]
Results of examinations were expressed by mean value±standard error and analyzed using EXSAS (Version 7.1.6, Arm Systex Co., Ltd.). […]

For the sequence “STGKFTCKVPGLYYF (Immunoglobulin binding peptide) [R5]”, in experiment [1], the Fluorescence intensity is 65,311. In addition, the “difference in effectiveness between once-a-day and twice-a-day administration” value in experiment [2] (10 mg/kg intraperitoneal) is recorded as “no significant difference”. Further, in experiment [2] (10 mg/kg intraperitoneal vs methotrexate 0.1 mg/kg orally once a day), the “degree of arthritis suppression compared with methotrexate” value is recorded as “higher degree of arthritis suppression than that of methotrexate”. In addition, in experiment [2] (10 mg/kg intraperitoneal, once or twice a day, day 4 to day 14), the “arthritis suppressing effect (clinical score)” value is listed as “exhibited arthritis suppressing effects; also recorded: arthritis was suppressed”.
